# Measured values taken from US20210308211A1, “METHOD OF TREATING VIRAL INFECTIONS” (priority 2020, published 2021).
# Where “and” joins values, the source holds several entries; their conditions need not be identical. Identical values can stand only once. Non-standard residues stand in square brackets, D forms with d. Residues, ends and D or L forms follow the SMILES beside them. pS = N[C@@H](COP(=O)(O)O)C(=O)O
# Assays:
# [1] = test system: Balb/c mice; assay: 31-day HDM-induced asthma model, BAL cell counts; format: in vivo, mouse; settings: for B cells / DCs / Eosinophils / Macrophages / Neutrophils / T cells / Total cells: BAL, per mouse
# Experimental: The aim of this study was to evaluate the effect of the P140 phosphopeptide administered systemically (intravenously) in a 31-day model of HDM-induced asthma in mice. The P140 phosphopeptide was solubilized in sterile water (Braun) and 10x concentrate sterile saline was added to adjust osmolarity to 300 mosm. Osmolarity was controlled with a micro osmometer (Löser, type 15) and validated (303 mosm). The P140 phosphopeptide was used in vivo at the dose of 4 mg/kg by intravenous (i.v.) routes. Control animals received equivalent volumes (2 ml/kg) of saline (Table 8).
# Nine-week-old male Balb/c mice were sensitized by intranasal (i.n.) administration of HDM extract (Stallergenes): 1 μg in 25 μl saline on days 0, 1, 2, 3, 4, and 10 μg on days 14 and 21. Mice were challenged by i.n. administration of HDM (1 μg) and/or saline on days 28, 29 and 30. Mice were treated by i.v. injection (2 ml/kg) of P140 or solvent on day 25 (see FIG. 12).
# BAL was performed after airway responsiveness measurement twenty-four hours after HDM challenge as described (Daubeuf et al. 2012). Mice were anaesthetized IP (Ketamine 150 mg/kg—Xylasine 10 mg/kg). Blood was collected from the heart, centrifuged at 10,000 g for 2 min and serum stored at −20° C.
# After semi-excision of the trachea, a plastic cannula was inserted, and airspace washed with 0.5 ml of 0.9% NaCl injected with a 1 ml syringe. This procedure was performed 10 times. The initial concentrated supernatant of the 2 first lavages (volume=2×0.5 ml administered, approximately 0.5 ml recovered) was collected for cytokine measurements. The remaining BAL fluid was centrifuged (300 g for 5 min, 4° C.), and cell pellets pooled. The cell pellet was suspended in 500 μl of 0.9% NaCl and used for total cell counts evaluated on a Muse® Cell Analyser (Millipore). Differential cell counts were assessed by flow cytometry (LSRII® cytometer, BD Bioscience). BAL cells were added with FCblock (0.5 μl, 553142, BD Bioscience) in a black microplate, incubated for 20 min at room temperature. Then, marker antibodies were added: CD11c-FITC (557400, BD bioscience), Gr-1-PeeFluor610 (61-5931-82, eBioscience), F4/80-PE (12-4801-82, eBioscience), CD11b-APC-Cy7 (557657, BD bioscience), CD45-AlexaFluor700 (103128, BioLegend), CD3-BV605 (564009, BD bioscience), CD19-PE-Cy7 (552854, BD bioscience). Antibodies were incubated with BAL cells for 30 min at room temperature before DAPI (5 μl, BD bioscience) addition, and flow cytometry was performed immediately.
# All mice were sensitized to HDM on days 0, 1, 2, 3, 4, 14, 21, and challenged either with saline ([…]) or HDM (challenge with allergen). Results are presented as means±SEM. Differences between groups were tested for statistical significance using Student's t test for inflammatory cells and a two-way ANOVA followed by Bonferroni post-test for airway responses.
# [2] = test system: MRL/lpr B cells; settings: cited from earlier work
# [3] = HDM + P140 (i.v. 4 mg/kg day 25, HDM-challenged)
# [4] = P140 i.v. 4 mg/kg day 25, HDM-sensitized, saline-challenged (chronic asthma)
# [5] = chronic asthma (saline challenge), 4 mg/kg i.v. day 25, BAL, non-significant
# [6] = chronic asthma (saline challenge), 4 mg/kg i.v. day 25, BAL, p<0.05
compound,measurement,setting,value
CC[C@H](C)[C@H](NC(=O)[C@H](Cc1ccccc1)NC(=O)[C@H](C)NC(=O)[C@H](Cc1ccc(O)cc1)NC(=O)CNC(=O)[C@H](CCCNC(=N)N)NC(=O)[C@@H]1CCCN1C(=O)[C@H](CCCCN)NC(=O)CNC(=O)[C@H](COP(=O)(O)O)NC(=O)[C@H](CCCNC(=N)N)NC(=O)[C@H](CCCCN)NC(=O)[C@H](CO)NC(=O)[C@H](Cc1ccc(O)cc1)NC(=O)[C@@H](NC(=O)[C@H](CCSC)NC(=O)[C@H](Cc1c[nH]cn1)NC(=O)[C@@H](NC(=O)[C@@H](N)CCCNC(=N)N)[C@@H](C)CC)C(C)C)C(=O)N[C@@H](CCC(=O)O)C(=O)N[C@@H](Cc1ccc(O)cc1)C(=O)O [Compound P140] (H-RIHMVYSKR[pS]GKPRGYAFIEY-OH; N-terminus and C-terminus assumed),B cells,[1]; [3],59092 and 102246 and 42085 and 25443 and 116814 and 115000 and 53947 and 170980
same,DCs,[1]; [3],1034 and 2238 and 1793 and 242 and 586 and 1350 and 733 and 1928
same,Eosinophils,[1]; [3],955824 and 1404942 and 636065 and 342046 and 1283190 and 1036803 and 538210 and 1010686
same,Macrophages,[1]; [3],58705 and 118771 and 314326 and 126002 and 34364 and 38709 and 29121 and 73491
same,Neutrophils,[1]; [3],606700 and 510027 and 500004 and 147616 and 371317 and 487119 and 284503 and 24426
same,T cells,[1]; [3],400329 and 735865 and 383074 and 243813 and 469834 and 502985 and 334784 and 1056303
same,Total cells,[1]; [3],2140000 and 2992000 and 2190000 and 1010000 and 2310000 and 2220000 and 1270000 and 2410000
same,B cells,[1]; [4],2297 and 44688 and 22879 and 11101 and 7660
same,DCs,[1]; [4],0 and 484 and 461 and 319 and 160
same,Eosinophils,[1]; [4],124514 and 450346 and 448074 and 205568 and 239527
same,Macrophages,[1]; [4],130734 and 267685 and 360987 and 177815 and 73725
same,Neutrophils,[1]; [4],2584 and 35734 and 23986 and 34836 and 2394
same,T cells,[1]; [4],57711 and 323523 and 294011 and 208439 and 86810
same,Total cells,[1]; [4],448000 and 1390000 and 1510000 and 815000 and 484000
same,Inflammatory cell recruitment in BAL (in words),"[1]; HDM-challenged mice, in comparison to the solvent group",no effect
same,"Number of B cells, change vs solvent group",[1]; [5],−40%
same,"Number of eosinophils, change vs solvent group",[1]; [5],−25%
same,"Number of macrophages, increase vs solvent group",[1]; [6],4.5 fold
same,"Number of neutrophils, change vs solvent group",[1]; [6],−71%
same,Autophagy markers SQSTM1 and MAP1LC3,"[2]; MRL/lpr B cells after P140 treatment (Page et al., 2011)",accumulation
same,Expression of HSPA8 and LAMP-2A,"[2]; MRL/lpr B cells after treating mice (Page et al., 2011; Macri et al., in press)",down-regulated
